The results in this text go back to US10501516B2, “Peptide compound” (TAKEDA PHARMACEUTICAL COMPANY LIMITED, priority 2016, dated 2019).

Square brackets hold non-standard residues; d marks the D form. Side chains are listed from the residue outwards. Peptide text beside a SMILES is read from it. * marks the point of attachment. C18 diacid = O=C(O)CCCCCCCCCCCCCCCCC(=O)*; NMeY = CN[C@@H](Cc1ccc(O)cc1)C(=O)O; Palmitoyl = CCCCCCCCCCCCCCCC(=O)*; αMeF = C[C@](N)(Cc1ccccc1)C(=O)O; Iva = CC[C@](C)(N)C(=O)O; Aib = CC(C)(N)C(=O)O

One assay addresses T1, human NPY2R (Homo sapiens, UniProt P49146).
T1 construct: expressed in transfected cells; host or cells: CHO-K1 Cre-luc reporter cells (pAKKO1114/hNPY2R#481 No. 88 cells)
T1 sequence (P49146 1-381): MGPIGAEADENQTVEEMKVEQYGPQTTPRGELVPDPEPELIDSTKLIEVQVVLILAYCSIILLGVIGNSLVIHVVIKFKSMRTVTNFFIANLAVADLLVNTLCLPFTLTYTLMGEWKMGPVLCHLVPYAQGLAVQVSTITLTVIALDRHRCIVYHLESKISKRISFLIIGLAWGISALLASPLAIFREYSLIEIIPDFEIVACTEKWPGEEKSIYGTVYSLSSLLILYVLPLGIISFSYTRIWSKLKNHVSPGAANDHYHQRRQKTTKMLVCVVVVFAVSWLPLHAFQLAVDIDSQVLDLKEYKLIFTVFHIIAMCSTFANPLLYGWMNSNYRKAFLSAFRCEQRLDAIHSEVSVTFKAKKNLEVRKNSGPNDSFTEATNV
As to the kind of experiment: Reporter assay of human NPY2R gene (agonist activity, decrease in intracellular cAMP as index). The class given is cell-based. Conditions: Cre-luc reporter, hNPY2R CHO-K1 cells, forskolin 1.2 μM, 4 hours; read-out: Agonist activity (EC50) hY2R. The source says: (§1) Evaluation of Agonist Activity Against Human NPY2R, Human GIPR, and Human GLP-1R Using Change in Intracellular cAMP Concentration as Index
The human NPY2R gene having a sequence identical to the sequence of GenBank Accession No. AC104407 was cloned into pAKKO1114 vector to prepare hNPY2R/pAKKO1114. Next, pGL4.29 (Promega) was introduced to CHO-K1 cells, which were then screened with hygromycin to construct Cre-luc reporter cells. These cells were cotransfected with hNPY2R/pAKKO1114 and pcDNA3.1 (Life Technologies Corp.), and the cells were screened with geneticin. Next, a cell line induced to express luciferase, i.e., pAKKO1114/hNPY2R#481 No. 88 cells, were selected from the obtained transformants by the addition of human PYY (3-36).
The pAKKO1114/hNPY2R#481 No. 88 cells were inoculated at a cell density of 25 μL/well (5,000 cells/well) to a 384-well white plate (Corning, 3570), and cultured overnight in Ham F12 medium containing 10% fetal bovine serum, 100 U/mL penicillin and 100 μg/mL streptomycin in a CO2 incubator of 37° C. On the next day, the medium was removed, and an assay medium (Ham F12 medium containing 0.1% BSA, 100 U/mL penicillin and 100 μg/mL streptomycin) containing forskolin (final concentration: 1.2 μM) was added at a concentration of 25 μL/well to the cells. Next, an assay medium containing a test compound was added at a concentration of 5 μL/well to the cells, and the resultant cells were incubated for 4 hours in a CO2 incubator of 37° C. to give the final concentration of 1 μM. SteadyGlo (Promega) was added thereto at a concentration of 30 μL/well, and the mixture was left standing for 20 minutes with light shielded. The luciferase activity was measured using a plate reader Envision (PerkinElmer). The luciferase activity from the addition of DMSO was defined as 100%, and the luciferase activity from the addition of 1 μM human PYY(3-36) instead of the test compound was defined as 0%. The NPY2R agonist activity was calculated with a decrease in intracellular cAMP concentration as an index.
For orientation: Reporter assays use an easily measured gene product as a stand-in for the process of interest.

Another assay concerns the target T2, human GIPR (Homo sapiens, UniProt P48546).
T2 construct: expressed in transfected cells; host or cells: CHO-K1 Cre-luc reporter cells (hGIPR/CHO-K1, also called hGIPR/CRE-LUC/CHO-K1)
T2 sequence (P48546 22-466): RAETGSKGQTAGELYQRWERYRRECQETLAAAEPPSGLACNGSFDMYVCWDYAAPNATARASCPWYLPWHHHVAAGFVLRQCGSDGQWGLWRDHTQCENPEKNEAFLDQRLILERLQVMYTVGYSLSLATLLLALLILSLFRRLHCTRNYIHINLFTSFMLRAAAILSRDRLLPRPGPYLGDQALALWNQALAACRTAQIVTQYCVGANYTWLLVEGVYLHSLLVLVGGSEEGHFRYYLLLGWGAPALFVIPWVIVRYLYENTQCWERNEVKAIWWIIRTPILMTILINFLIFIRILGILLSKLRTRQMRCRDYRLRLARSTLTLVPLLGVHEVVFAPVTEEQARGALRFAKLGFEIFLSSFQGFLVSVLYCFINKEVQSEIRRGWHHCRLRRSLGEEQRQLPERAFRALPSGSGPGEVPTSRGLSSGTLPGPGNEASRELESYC
As to the kind of experiment: Reporter assay of human GIPR gene (agonist activity, intracellular cAMP as index). The class given is cell-based. Conditions: Cre-luc reporter, hGIPR/CHO-K1 cells, 4 hours.
Source text: as §1
The human GIPR gene having a sequence identical to the sequence of GenBank Accession No. U39231 was cloned into pMSRα-neo vector to prepare hGIPR/pMSRα-neo. This vector was introduced to the Cre-luc reporter cells obtained in (1) to obtain transformants. Next, a cell line induced to express luciferase, i.e., hGIPR/CHO-K1 cells, were selected from the obtained transformants by the addition of GIP.
The hGIPR/CRE-LUC/CHO-K1 cells or the hGLP-1R/Crel cells were inoculated at a cell density of 25 μL/well (5,000 cells/well) to a 384-well white plate (Corning, 3570), and cultured overnight in Ham F12 medium containing 10% fetal bovine serum, 100 U/mL penicillin and 100 μg/mL streptomycin in a CO2 incubator of 37° C. On the next day, a medium containing a test compound was added at a concentration of 5 μL/well to the cells, and the resultant cells were incubated for 4 hours in a CO2 incubator of 37° C. to give the final concentration of 1 μM. SteadyGlo (Promega) was added thereto at a concentration of 30 μL/well, and the mixture was shaken with light shielded. After 30 minutes, the luciferase activity was measured using a plate reader Envision (PerkinElmer). For the GIPR agonist activity, the luciferase activity in the presence of 10 μM GIP was defined as 100%, and the luciferase activity from the addition of DMSO instead of the test compound was defined as 0%. The GIPR agonist activity was calculated with a rise in intracellular cAMP concentration as an index.

The subject of another assay is male C57BL/6J mouse. As to the kind of experiment: Evaluation of feeding suppressive action in mice. In kind it is in vivo. The note with it: 30 nmol/kg s.c. once a day for 3 days; 3-days cumulative food consumption vs solvent control. Summed up:
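Male C57BL/6J mice, 8-9 weeks, ad libitum fed, given compound (30 or 100 nmol/2 mL in 10% DMSO saline) s.c. at 2 mL/kg once daily for 3 days. Cumulative 3-day food consumption measured by weighing; suppression rate (%) calculated relative to vehicle controls.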

For `CCCCCCCCCCCCCCCC(=O)NCC(=O)NCC(=O)NCC(=O)NCC(=O)NCCCC[C@H](NC(=O)[C@H](CC(=O)O)NC(=O)[C@H](CO)NC(=O)[C@@H](NC(=O)[C@](C)(Cc1ccccc1)NC(=O)[C@@H](NC(=O)CNC(=O)[C@H](CCC(=O)O)NC(=O)C(C)(C)NC(=O)[C@@H](N)Cc1ccc(O)cc1)[C@@H](C)O)[C@@H](C)O)C(=O)NC(C)(C)C(=O)N[C@H](C(=O)NC(C)(C)C(=O)N[C@@H](CC(C)C)C(=O)N[C@@H](CC(=O)O)C(=O)N[C@@H](CCCCN)C(=O)N[C@@H](CCC(N)=O)C(=O)N[C@@H](CCCNC(=N)N)C(=O)N[C@@H](CCC(N)=O)C(=O)N[C@@](C)(CC)C(=O)N[C@@H](CCC(=O)O)C(=O)N[C@@H](Cc1ccccc1)C(=O)N[C@H](C(=O)N[C@@H](CCCNC(=N)N)C(=O)N[C@@H](Cc1c[nH]cn1)C(=O)N[C@@H](CC(C)C)C(=O)N[C@@H](CC(C)C)C(=O)N[C@@H](CC(N)=O)C(=O)N[C@@H](CCCCN)C(=O)NC(C)(C)C(=O)N[C@H](C(=O)N[C@@H](CCCNC(=N)N)C(=O)N[C@@H](CCC(N)=O)C(=O)N[C@@H](CCCNC(=N)N)C(=O)N[C@@H](Cc1ccc(O)cc1)C(N)=O)[C@@H](C)O)C(C)C)[C@@H](C)CC` [Example 7] (H-Y[Aib]EGT[αMeF]TSDK([Gly-Gly-Gly-Gly-Palmitoyl])[Aib]I[Aib]LDKQRQ[Iva]EFVRHLLNK[Aib]TRQRY-NH2), the figures for the EC50 on human NPY2R and at human GIPR were 0.1 nM and 0.068 nM, respectively. For the same molecule, the “Rate of feeding suppression (%)” value in the assay with male C57BL/6J mouse was −37.6%.
Regarding `CCCCCCCCCCCCCCCC(=O)NCC(=O)NCC(=O)NCC(=O)NCC(=O)NCCCC[C@H](NC(=O)[C@H](CC(=O)O)NC(=O)[C@H](CO)NC(=O)[C@@H](NC(=O)[C@](C)(Cc1ccccc1)NC(=O)[C@@H](NC(=O)CNC(=O)[C@H](CCC(=O)O)NC(=O)C(C)(C)NC(=O)[C@H](Cc1ccc(O)cc1)NC)[C@@H](C)O)[C@@H](C)O)C(=O)NC(C)(C)C(=O)N[C@H](C(=O)NC(C)(C)C(=O)N[C@@H](CC(C)C)C(=O)N[C@@H](CC(=O)O)C(=O)N[C@@H](CCCCN)C(=O)N[C@@H](CCC(N)=O)C(=O)N[C@@H](CCCNC(=N)N)C(=O)N[C@@H](CCC(N)=O)C(=O)N[C@@](C)(CC)C(=O)N[C@@H](CCC(=O)O)C(=O)N[C@@H](Cc1ccccc1)C(=O)N[C@H](C(=O)N[C@@H](CCCNC(=N)N)C(=O)N[C@@H](Cc1c[nH]cn1)C(=O)N[C@@H](CC(C)C)C(=O)N[C@@H](CC(C)C)C(=O)N[C@@H](CC(N)=O)C(=O)N[C@@H](CCCCN)C(=O)NC(C)(C)C(=O)N[C@H](C(=O)N[C@@H](CCCNC(=N)N)C(=O)N[C@@H](CCC(N)=O)C(=O)N[C@@H](CCCNC(=N)N)C(=O)N[C@@H](Cc1ccc(O)cc1)C(N)=O)[C@@H](C)O)C(C)C)[C@@H](C)CC` [Example 9] (H-[NMeY][Aib]EGT[αMeF]TSDK([Gly-Gly-Gly-Gly-Palmitoyl])[Aib]I[Aib]LDKQRQ[Iva]EFVRHLLNK[Aib]TRQRY-NH2), the EC50 (as a rule, the concentration giving half of the maximal effect) at human NPY2R was found to be 0.1 nM; at human GIPR it was 0.068 nM.
As for `CCCCCCCCCCCCCCCC(=O)NCC(=O)NCC(=O)NCC(=O)NCC(=O)NCCCC[C@H](NC(=O)[C@H](CC(=O)O)NC(=O)[C@H](CO)NC(=O)[C@@H](NC(=O)[C@](C)(Cc1ccccc1)NC(=O)[C@@H](NC(=O)CNC(=O)[C@H](CCC(=O)O)NC(=O)C(C)(C)NC(=O)[C@H](Cc1ccc(O)cc1)NC)[C@@H](C)O)[C@@H](C)O)C(=O)N[C@@H](C)C(=O)N[C@H](C(=O)NC(C)(C)C(=O)N[C@@H](CC(C)C)C(=O)N[C@@H](CC(=O)O)C(=O)N[C@@H](CCCCN)C(=O)N[C@@H](CCC(N)=O)C(=O)N[C@@H](CCCNC(=N)N)C(=O)N[C@@H](CCC(N)=O)C(=O)N[C@@](C)(CC)C(=O)N[C@@H](CCC(=O)O)C(=O)N[C@@H](Cc1ccccc1)C(=O)N[C@H](C(=O)N[C@@H](CCCNC(=N)N)C(=O)N[C@@H](Cc1c[nH]cn1)C(=O)N[C@@H](CC(C)C)C(=O)N[C@@H](CC(C)C)C(=O)N[C@@H](CC(N)=O)C(=O)N[C@@H](CCCCN)C(=O)NC(C)(C)C(=O)N[C@H](C(=O)N[C@@H](CCCNC(=N)N)C(=O)N[C@@H](CCC(N)=O)C(=O)N[C@@H](CCCNC(=N)N)C(=O)N[C@@H](Cc1ccc(O)cc1)C(N)=O)[C@@H](C)O)C(C)C)[C@@H](C)CC` [Example 13] (H-[NMeY][Aib]EGT[αMeF]TSDK([Gly-Gly-Gly-Gly-Palmitoyl])AI[Aib]LDKQRQ[Iva]EFVRHLLNK[Aib]TRQRY-NH2), the EC50 was determined as 0.1 nM on human NPY2R and 0.074 nM on human GIPR. The “Rate of feeding suppression (%)” value with male C57BL/6J mouse was −41.0%.
Regarding `CC[C@H](C)[C@H](NC(=O)C(C)(C)NC(=O)[C@H](CCCCNC(=O)CNC(=O)CNC(=O)CNC(=O)CNC(=O)CCCCCCCCCCCCCCCCC(=O)O)NC(=O)[C@H](CC(=O)O)NC(=O)[C@H](CO)NC(=O)[C@@H](NC(=O)[C@](C)(Cc1ccccc1)NC(=O)[C@@H](NC(=O)CNC(=O)[C@H](CCC(=O)O)NC(=O)C(C)(C)NC(=O)[C@@H](N)Cc1ccc(O)cc1)[C@@H](C)O)[C@@H](C)O)C(=O)NC(C)(C)C(=O)N[C@@H](CC(C)C)C(=O)N[C@@H](CC(=O)O)C(=O)N[C@@H](CCCCN)C(=O)N[C@@H](CCC(N)=O)C(=O)N[C@@H](C)C(=O)N[C@@H](CCC(N)=O)C(=O)N[C@@](C)(CC)C(=O)N[C@@H](CCC(=O)O)C(=O)N[C@@H](Cc1ccccc1)C(=O)N[C@H](C(=O)N[C@@H](CCCNC(=N)N)C(=O)N[C@@H](Cc1c[nH]cn1)C(=O)N[C@@H](CC(C)C)C(=O)N[C@@H](CC(C)C)C(=O)N[C@@H](CC(N)=O)C(=O)N[C@@H](CCCCN)C(=O)NC(C)(C)C(=O)N[C@H](C(=O)N[C@@H](CCCNC(=N)N)C(=O)N[C@@H](CCC(N)=O)C(=O)N[C@@H](CCCNC(=N)N)C(=O)N[C@@H](Cc1ccc(O)cc1)C(N)=O)[C@@H](C)O)C(C)C` [Example 28] (H-Y[Aib]EGT[αMeF]TSDK([Gly-Gly-Gly-Gly-C18 diacid])[Aib]I[Aib]LDKQAQ[Iva]EFVRHLLNK[Aib]TRQRY-NH2), the EC50 on human NPY2R worked out at 2.4 nM; on human GIPR, 0.074 nM.
